Legend:
mRNAs in J774.2 cells = assay: Affymetrix microarray: mRNAs up- or down-regulated by Compounds A and B in LPS-stimulated macrophages; assay type: cell-based, murine; details: 50 μg/ml compound + 100 ng/ml LPS, 24 hours, J774.2 only; for Numbers of mRNAs with levels significantly altered by both Compounds A and B, in the presence of LPS: Decreased: decreased at least 2-fold by both compounds; for Numbers of mRNAs with levels significantly altered by both Compounds A and B, in the presence of LPS: Increased: increased at least 2-fold by both compounds
Experimental: (§1) Two murine macrophage cell lines were used: J774.2 (gift from Peter Lambert, Aston University, UK), and RAW 264.7 (ATCC item number TIB-71). Cells were harvested from nearly confluent culture flasks and seeded into 6 well plates at a density of 5×10^6 cells well^−1 in a volume of 3 ml Dulbecco's modified essential medium supplemented with 10% fetal calf serum. After 2 hours, cells were exposed to the following conditions:
5) 50 μg/ml Compound A+100 ng/ml LPS (J774 cells only)
6) 50 μg/ml Compound B+100 ng/ml LPS (J774 cells only)
(§2) The tetracycline compounds were added 1.5 hours post seeding, thirty minutes before the addition of LPS. The plates were incubated at 37° C. at 5% CO2 in a humidified incubator.
(§3) 24 hours after incubation under experimental conditions, media was removed from the wells, and total RNA was purified from each sample using QIAGEN RNeasy® Mini columns. The manipulations which were then performed on the total RNA samples were as outlined in The Affymetrix® GeneChip® Expression Analysis technical manual, sections 2, chapter 1, entitled Eukaryotic Target Preparation. Briefly, RNA was reverse transcribed into double stranded cDNA with an oligo dT primer containing a T7 promoter. The product was then purified by phenol:chloroform:isoamyl extraction and ethanol precipitation, and then used in an […] to synthesize biotin-labelled antisense cRNA (Affymetrix controls of B. subtilis genes excised from pBluescript plasmid with Xho I digestion were added at this stage to control for correct translation and biotin incorporation). The cRNA was then cleaned using QIAGEN RNeasy® Mini columns, and the resulting cRNA solution fragmented using metal-induced hydrolysis.
Samples were prepared for hybridization with the Affymetrix murine genome chips U74AV2 according to the directions in the Affymetrix® GeneChip® Expression Analysis technical manual, sections 2, chapters 3 and 4, entitled Eukaryotic Target Hybridization and Eukaryotic Arrays: Washing Staining and Scanning. Briefly, 15 ug Fragmented cRNA was mixed with Affymetrix hybridization controls, herring sperm DNA, BSA, and concentrated hybridization buffer, boiled for 5 minutes, centrifuged at 14000×g for 5 minutes to obtain a precipitated-free solution, and hybridized with the array for 16 hours. […]
For J774.2 cells stimulated by LPS, two lists were generated, one of mRNAs which were increased at lease 2-fold by Compounds A and/or B, and one of mRNAs which were decreased at least 2-fold by Compounds A and/or B. In the case of mRNAs which were increased, the mRNAs had to be statistically ‘Present’ in the samples which contained Compounds A and/or B (‘Present’ as determined by the Affymetrix microarray suite software).

in vitro = assay type: cell-based; details: African green monkey (COS-1) and Chinese hamster (CHO-K1)
Experimental: COS-1 and CHO-K1 cell suspensions were prepared, seeded into 96-well tissue culture treated black-walled microtiter plates (density determined by cell line), and incubated overnight at 37° C., in 5% CO2 and approximately 95% humidity. The following day, serial dilutions of drug were prepared under sterile conditions and transferred to cell plates. Cell/Drug plates were incubated under the above conditions for 24 hours. Following the incubation period, media/drug was aspirated and 50 μl of Resazurin (0.042 mg/ml in PBS w/Ca and Mg) was added. The plates were then incubated under the above conditions for 2 hours and then in the dark at room temperature for an additional 30 minutes. Fluorescence measurements were taken (excitation 535 nm, emission 590 nm). The IC50 (concentration of drug causing 50% growth inhibition) was then calculated.

[1] = test system: mRNAs in J774.2 and RAW264.7 cells; assay: Affymetrix microarray: mRNAs up- or down-regulated by minocycline in murine macrophage cell lines; assay type: cell-based; details: 24 hours
Experimental: as §1
1) control (J774 cells on two separate occasions, and RAW 264.7 cells)
2) 50 μg/ml minocycline (J774 cells on two separate occasions, and RAW 264.7 cells)
3) 100 ng/ml LPS (J774 cells on two separate occasions, and RAW 264.7 cells)
4) 50 μg/ml minocycline+100 ng/ml LPS (J774 cells on two separate occasions, and RAW 264.7 cells)
as §2
as §3, with “hydrolysis. […]” for “hydrolysis.”
For both J774.2 and RAW264.7 cells, two lists were generated, one of mRNAs which were increased at lease 2-fold by minocycline, and one of mRNAs which were decreased at least 2-fold by minocycline. In the case of mRNAs which were increased, the mRNAs had to be statistically ‘Present’ in the samples which contained minocycline (‘Present’ as determined by the Affymetrix microarray suite software). […]
For both J774.2 and RAW264.7 cells stimulated by LPS, two lists were generated, one of mRNAs which were increased at lease 2-fold by minocycline, and one of mRNAs which were decreased at least 2-fold by minocycline. In the case of mRNAs which were increased, the mRNAs had to be statistically ‘Present’ in the samples which contained minocycline (‘Present’ as determined by the Affymetrix microarray suite software).

Row | SMILES | Numbers of mRNAs with levels significantly altered by both Compounds A and B, in the presence of LPS: Decreased (mRNAs in J774.2 cells) | Numbers of mRNAs with levels significantly altered by both Compounds A and B, in the presence of LPS: Increased (mRNAs in J774.2 cells) | IC50 at 24 h (in vitro) [µg/mL] | Numbers of mRNAs with levels significantly altered by minocycline, in the presence of LPS: Decreased ([1]; 50 μg/ml minocycline + 100 ng/ml LPS, decreased at least 2-fold, common to all three lists (J774.2 twice, RAW264.7)) | Numbers of mRNAs with levels significantly altered by minocycline, in the presence of LPS: Increased ([1]; 50 μg/ml minocycline + 100 ng/ml LPS, increased at least 2-fold, common to all three lists (J774.2 twice, RAW264.7)) | Numbers of mRNAs with levels significantly altered by minocycline: Decreased ([1]; 50 μg/ml minocycline, no LPS, decreased at least 2-fold, mRNAs common to all three lists (J774.2 twice, RAW264.7)) | Numbers of mRNAs with levels significantly altered by minocycline: Increased ([1]; 50 μg/ml minocycline, no LPS, increased at least 2-fold, mRNAs common to all three lists (J774.2 twice, RAW264.7))
1 | CN(C)C1C(O)=C(C(N)=O)C(=O)[C@@]2(O)C(O)=C3C(=O)c4c(O)ccc(CNCC(C)(C)C)c4C[C@H]3C[C@@H]12 (stereo partly shown) [Compound A] | 108 | 133 |  |  |  |  | 
2 | C[C@H]1c2ccc(N3CCCCC3)c(O)c2C(=O)C2=C(O)[C@]3(O)C(=O)C(C(N)=O)=C(O)C(N(C)C)[C@@H]3[C@@H](O)[C@@H]21 (stereo partly shown) [Compound B] | 108 | 133 |  |  |  |  | 
3 | C[C@H]1c2cccc(O)c2C(=O)C2=C(O)[C@]3(O)C(=O)C(C(N)=O)=C(O)[C@@H](N(C)C)[C@@H]3[C@@H](O)[C@@H]21 [doxycycline] |  |  | > 25 |  |  |  | 
4 | CN(C)c1ccc(O)c2c1C[C@H]1C[C@H]3[C@H](N(C)C)C(O)=C(C(N)=O)C(=O)[C@@]3(O)C(O)=C1C2=O [minocycline] |  |  | > 25 | 9 | 28 | 4 | 21
